Results as given in paper PMC5349880, “P-glycoprotein-mediated chemoresistance is reversed by carbonic anhydrase XII inhibitors” (Oncotarget, 2016).
Counter-ions that a name gives are not always drawn.

Tests used:
[1] = tested on: SaOS/DX cells; assay: Cell viability (neutral red); type: cell-based, human; conditions: SaOS/DX cells; compound alone, 5 nM
[2] = tested on: CCD-Co-18 cells, BEAS-2B cells, MCF10A cells, fibroblasts; assay: Cell viability (neutral red) of not-transformed cells; type: cell-based, human; conditions: 5 nM, 72 h; no detectable CAXII
Source text: Supplementary Figure S4: Effects of compounds 1, 2 and 4 on not-transformed cells. (A) Not-transformed human epithelial colon CCD-Co-18 cells, epithelial lung BEAS-2B cells, epithelial breast MCF10A cells, fibroblasts (fibro) were lysed and immunoblotted for CAXII and CAIX. A549/DX cells were used as control of CAXII- and CAIX-positive cells. β-tubulin level was used as control of equal protein loading. The figure is representative of one out of three experiments with similar results. (B) Cells were grown for 72 h in fresh medium (–), or in medium containing 5 nM compounds 1, 2 and 4, then stained with neutral red dye. The absorbance of viable cells was measured spectrophotometrically. Data are presented as means ± SD (n = 4).

[3] = tested on: T74D cells; assay: Cell viability (neutral red); type: cell-based, human; conditions: T74D cells; compound alone, 5 nM
[4] = tested on: TUBO cells; assay: Cell viability (neutral red); type: cell-based, murine; conditions: TUBO cells; compound alone, 5 nM
[5] = target: human CA IX; parameters: method as in PMID 21851094, PMID 19827837, PMID 21314129; conditions: recombinant CA, errors ± 5%, three determinations; cited from earlier work
[6] = tested on: A549/DX cells; assay: Cell viability (neutral red); type: cell-based, human; conditions: A549/DX cells; compound alone, 5 nM
[7] = tested on: MDA-MB-231 cells; assay: Cell viability (neutral red); type: cell-based, human; conditions: MDA-MB-231 cells; compound alone, 5 nM
[8] = tested on: Pgp; assay: Pgp ATPase activity on Pgp-rich vesicles; type: cell-based; conditions: for reduction of Pgp ATPase activity: cells grown 24 h with 5 nM compound
Protocol: Pancadherin level was used as control of equal protein loading. no Ab: A549/DX sample immunoprecipitated without antibody. […] Data are presented as means ± SD (n = 3).
The assay was performed on Pgp-enriched membrane vesicles as detailed in [39]. Verapamil (10 μM) was added to the reaction mix to achieve a maximal activation of the Pgp ATPase activity. Results were expressed as nmol hydrolyzed phosphate (Pi)/min/mg proteins, according to the titration curve previously prepared.

[9] = tested on: U2OS/DX cells; assay: Cell viability (neutral red); type: cell-based, human; conditions: U2OS/DX cells; compound alone, 5 nM
[10] = tested on: HT29/DX cells; assay: Cell viability (neutral red); type: cell-based, human; conditions: HT29/DX cells; compound alone, 5 nM
[11] = tested on: JC cells; assay: Cell viability (neutral red); type: cell-based, murine; conditions: JC cells; compound alone, 5 nM
[12] = tested on: A549 cells; assay: Cell viability (neutral red); type: cell-based, human; conditions: A549 cells; compound alone, 5 nM
[13] = tested on: ca12 KO HT29/DX, A549/DX, MDA-MB-231 and U2OS/DX cells; assay: Intracellular doxorubicin accumulation in ca12 knocked-out cells; type: cell-based, human
Protocol: Data are presented as means ± SD (n = 4). […] The absorbance of viable cells was measured spectrophotometrically. Data are presented as means ± SD (n = 4).
Doxorubicin content was measured fluorimetrically as detailed previously by us. […] Cells were washed twice with PBS, detached with trypsin and sonicated. The intracellular drug content was measured by liquid scintillation. The results were expressed as nmol drug/mg cell proteins, according to titration curves previously set.
5 × 10^5 cells were transduced with 1 μg RNA vector (CRISPR pCas guide vector) ca12 or 1 μg not-targeting vector, mixed with 1 μg donor DNA vector (Origene, Rockville, MD), following the manufacturer's instructions. Stable KO cells were selected in complete medium containing 1 μg/ml puromycin for three weeks. Knockout efficacy was evaluated by immunoblotting, as reported above.

[14] = target: human CA I; parameters: method as in PMID 21851094, PMID 19827837, PMID 21314129; conditions: recombinant CA, errors ± 5%, three determinations; cited from earlier work
[15] = target: human CA II; parameters: method as in PMID 21851094, PMID 19827837, PMID 21314129; conditions: recombinant CA, errors ± 5%, three determinations; cited from earlier work
[16] = target: human CA XII; parameters: method as in PMID 21851094, PMID 19827837, PMID 21314129; conditions: recombinant CA, errors ± 5%, three determinations; cited from earlier work
[17] = tested on: human CA XII; assay: CA inhibition, stopped-flow CO2 hydration; type: biochemical; conditions: ratio of Kis
Protocol: Saturated CO2 solutions in water at 20°C were used as substrate, while the recombinant CA protein was prepared in Hepes buffer (10 mM, pH 7.5) with added NaClO4 (0.1 M) to maintain a constant the ionic strength. […] The inhibition constants were obtained by nonlinear least-squares methods using PRISM 3. The curve fitting algorithm allowed us to obtain the IC50 values, from which Ki values were calculated by using the Cheng-Prusoff equation.

[18] = tested on: drug-sensitive and drug-resistant cancer cells; assay: Cell viability (neutral red), whole panel of cancer cell lines; conditions: read-out: IC50 of tariquidar alone

NS(=O)(=O)OC[C@H]1OC(O)[C@H](O)[C@@H](O)[C@@H]1O (stereo partly shown) [Compound 2]
reduction in viability for individual compounds [1]: ≤ 32 ± 7%
cytotoxic effect in not-transformed cells [2]: did not exert any cytotoxic effect
reduction in viability for individual compounds [3]: ≤ 33 ± 12%
reduction in viability for individual compounds [4]: ≤ 28 ± 7%
Ki [5]: 8.6 nM
reduction in viability for individual compounds [6]: ≤ 38 ± 7%
reduction in viability for individual compounds [7]: ≤ 36 ± 11%
reduction of Pgp ATPase activity [8]: ≥ 1.47 fold
reduction in viability for individual compounds [9]: ≤ 27 ± 8%
reduction in viability for individual compounds [10]: ≤ 31 ± 6%
reduction in viability for individual compounds [11]: ≤ 30 ± 10%
reduction in viability for individual compounds [12]: ≤ 28 ± 10%
effect on doxorubicin intracellular accumulation [13]: lost the ability to further increase the doxorubicin intracellular accumulation

CCC(=O)OC1O[C@H](COS(N)(=O)=O)[C@@H](OC(=O)CC)[C@H](OC(=O)CC)[C@H]1OC(=O)CC (stereo partly shown) [Compound 3]
Ki [5]: 77 nM

NS(=O)(=O)OC[C@H]1OC(O)[C@H](O)[C@@H](O)[C@H]1O (stereo partly shown) [Compound 4]
reduction in viability for individual compounds [1]: ≤ 32 ± 7%
cytotoxic effect in not-transformed cells [2]: did not exert any cytotoxic effect
reduction in viability for individual compounds [3]: ≤ 33 ± 12%
reduction in viability for individual compounds [4]: ≤ 28 ± 7%
Ki [5]: 62 nM
reduction in viability for individual compounds [6]: ≤ 38 ± 7%
reduction in viability for individual compounds [7]: ≤ 36 ± 11%
reduction of Pgp ATPase activity [8]: ≥ 1.47 fold
reduction in viability for individual compounds [9]: ≤ 27 ± 8%
reduction in viability for individual compounds [10]: ≤ 31 ± 6%
reduction in viability for individual compounds [11]: ≤ 30 ± 10%
reduction in viability for individual compounds [12]: ≤ 28 ± 10%
effect on doxorubicin intracellular accumulation [13]: lost the ability to further increase the doxorubicin intracellular accumulation

NS(=O)(=O)c1ccc(CNS(=O)(=O)[C@@H]2O[C@H](CO)[C@@H](O)[C@H](O)[C@H]2O)cc1 [Compound 5]
Ki [14]: 102 nM
Ki [15]: 9.1 nM
Ki [16]: 8.3 nM

NS(=O)(=O)c1ccc(CNS(=O)(=O)[C@@H]2O[C@H](CO)[C@H](O)[C@H](O)[C@H]2O)cc1 [Compound 6]
Ki [14]: 87 nM
Ki [15]: 7.8 nM
Ki [16]: 8.7 nM

NS(=O)(=O)c1ccc(CNS(=O)(=O)[C@@H]2O[C@H](CO)[C@@H](O[C@H]3O[C@H](CO)[C@H](O)[C@H](O)[C@H]3O)[C@H](O)[C@H]2O)cc1 [Compound 7]
Ki [14]: 107 nM
Ki [5]: 106 nM
Ki [15]: 5 nM
Ki [16]: 8.9 nM
CAXII Isozyme Selectivity CA I/XII [17]: 12.0
CAXII Isozyme Selectivity CA IX/XII [17]: 11.9
CAXII Isozyme Selectivity CAII/ XII [17]: 0.6

NS(=O)(=O)c1ccc(CNS(=O)(=O)[C@@H]2O[C@H](CO)[C@@H](O[C@H]3O[C@H](CO)[C@@H](O)[C@H](O)[C@H]3O)[C@H](O)[C@H]2O)cc1 [Compound 8]
Ki [14]: 101 nM
Ki [5]: 98 nM
Ki [15]: 4.8 nM
Ki [16]: 8.2 nM
CAXII Isozyme Selectivity CA I/XII [17]: 12.3
CAXII Isozyme Selectivity CA IX/XII [17]: 12.0
CAXII Isozyme Selectivity CAII/ XII [17]: 0.6

COc1cc2c(cc1OC)CN(CCc1ccc(NC(=O)c3cc(OC)c(OC)cc3NC(=O)c3cnc4ccccc4c3)cc1)CC2 [tariquidar, Tariquidar dihydrochloride, reference compound]
IC50 [18]: > 10000 nM
effect on Pgp ATPase activity ([8]; tariquidar 25 nM added during the assay): strongly decreased ATPase activity
